Data taken from PubChem BioAssay AID1963860 (Molecular Pharmacology Branch, DTP, NCI, 2024).

System: CN0375-F725-PDC KRAS spheroid viability
Assay: Anticancer human tumor CN0375-F725-PDC patient-derived colon carcinoma cell line growth inhibition [KRAS2]
Conditions: spheroids with HUVEC and MSC; for IC50: curve of first compound; for viability, T/C: stronger effect = lower value
Outline: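 Combination screen of spheroid viability in tumor-cell co-cultures with endothelial (HUVEC) and mesenchymal stem cell stroma. Each agent was tested in half-log dilutions, topping at clinical Cmax or at 10 microM without a known Cmax.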

[1] = second compound 0.1 µM, first compound 0.01 µM
[2] = second compound 0.1 µM, first compound 0.0316 µM
[3] = second compound 0.316 µM, first compound 0.01 µM
[4] = second compound 0.316 µM, first compound 0.0316 µM
[5] = second compound 1 µM, first compound 0.01 µM
[6] = second compound 1 µM, first compound 0.0316 µM
[7] = second compound 3.16 µM, first compound 0.01 µM
[8] = second compound 3.16 µM, first compound 0.0316 µM
[9] = second compound 10 µM, first compound 0.01 µM
[10] = second compound 10 µM, first compound 0.0316 µM
[11] = second compound 0.1 µM, first compound 0.1 µM
[12] = second compound 0.1 µM, first compound 0.316 µM
[13] = second compound 0.1 µM, first compound 1 µM
[14] = second compound 0.1 µM, first compound 3.16 µM
[15] = second compound 0.316 µM, first compound 0.1 µM
[16] = second compound 0.316 µM, first compound 0.316 µM
[17] = second compound 0.316 µM, first compound 1 µM
[18] = second compound 0.316 µM, first compound 3.16 µM
[19] = second compound 1 µM, first compound 0.1 µM
[20] = second compound 1 µM, first compound 0.316 µM
[21] = second compound 1 µM, first compound 1 µM
[22] = second compound 1 µM, first compound 3.16 µM
[23] = second compound 3.16 µM, first compound 0.1 µM
[24] = second compound 3.16 µM, first compound 0.316 µM
[25] = second compound 3.16 µM, first compound 1 µM
[26] = second compound 3.16 µM, first compound 3.16 µM
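Also: spheroids exposed to agents for 7 days.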

**Q.** What does the source list for CC(=O)Nc1cccc(-n2c(=O)n(C3CC3)c(=O)c3c(Nc4ccc(I)cc4F)n(C)c(=O)c(C)c32)c1 + C=CC(=O)N1CCN(c2nc(=O)n(-c3c(C)ccnc3C(C)C)c3nc(-c4c(O)cccc4F)c(F)cc23)C(C)C1?
**A.** IC50 (second compound 0.1 µM): 5.8 nM; IC50 (second compound 0.316 µM): 6 nM; IC50 (second compound 1 µM): 4.86 nM; IC50 (second compound 3.16 µM): 6.07 nM; IC50 (second compound 10 µM): 1.89 nM; viability, T/C (second compound 0.1 µM, first compound 0.0001 µM): 94%; viability, T/C (second compound 0.1 µM, first compound 0.000316 µM): 84.2%; viability, T/C (second compound 0.1 µM, first compound 0.001 µM): 71.2%; viability, T/C (second compound 0.1 µM, first compound 0.00316 µM): 55.7%; viability, T/C [1]: 45.1%; viability, T/C [2]: 32.4%; viability, T/C (second compound 0.316 µM, first compound 0.0001 µM): 101%; viability, T/C (second compound 0.316 µM, first compound 0.000316 µM): 84%; viability, T/C (second compound 0.316 µM, first compound 0.001 µM): 72.8%; viability, T/C (second compound 0.316 µM, first compound 0.00316 µM): 54.5%; viability, T/C [3]: 45.7%; viability, T/C [4]: 34.6%; viability, T/C (second compound 1 µM, first compound 0.0001 µM): 98.1%; viability, T/C (second compound 1 µM, first compound 0.000316 µM): 86.9%; viability, T/C (second compound 1 µM, first compound 0.001 µM): 77.2%; viability, T/C (second compound 1 µM, first compound 0.00316 µM): 51.1%; viability, T/C [5]: 44.9%; viability, T/C [6]: 33.6%; viability, T/C (second compound 3.16 µM, first compound 0.0001 µM): 97.7%; viability, T/C (second compound 3.16 µM, first compound 0.000316 µM): 92.2%; viability, T/C (second compound 3.16 µM, first compound 0.001 µM): 73%; viability, T/C (second compound 3.16 µM, first compound 0.00316 µM): 57.1%; viability, T/C [7]: 46.2%; viability, T/C [8]: 32.9%; viability, T/C (second compound 10 µM, first compound 0.0001 µM): 93.7%; viability, T/C (second compound 10 µM, first compound 0.000316 µM): 85.1%; viability, T/C (second compound 10 µM, first compound 0.001 µM): 56.3%; viability, T/C (second compound 10 µM, first compound 0.00316 µM): 43.9%; viability, T/C [9]: 35.8%; viability, T/C [10]: 27.8%

**Q.** For COc1cc(Nc2ncc3c(n2)-c2ccc(Cl)cc2C(c2c(F)cccc2OC)=NC3)ccc1C(=O)O + C=CC(=O)N1CCN(c2nc(OCC3CCCN3C)nc3c2CCN(c2cccc4cccc(C)c24)C3)CC1CC#N, which IC50 (second compound 0.0316 µM) is on record?
**A.** > 10000 nM

**Q.** And the IC50 (second compound 0.1 µM)?
**A.** > 10000 nM

**Q.** And the IC50 (second compound 0.316 µM)?
**A.** > 10000 nM

**Q.** What about the IC50 (second compound 1 µM) of the same molecule?
**A.** > 10000 nM

**Q.** What about the IC50 (second compound 3.16 µM) of the same molecule?
**A.** < 31.6 nM

**Q.** What about the viability, T/C (second compound 0.0316 µM, first compound 0.0316 µM) of the same molecule?
**A.** 96.6%

**Q.** And the viability, T/C (second compound 0.0316 µM, first compound 0.1 µM)?
**A.** 108%

**Q.** What about the viability, T/C (second compound 0.0316 µM, first compound 0.316 µM) of the same molecule?
**A.** 91.8%

**Q.** What about the viability, T/C (second compound 0.0316 µM, first compound 1 µM) of the same molecule?
**A.** 95%

**Q.** What about the viability, T/C (second compound 0.0316 µM, first compound 3.16 µM) of the same molecule?
**A.** 93.9%

**Q.** And the viability, T/C (second compound 0.0316 µM, first compound 10 µM)?
**A.** 74.9%

**Q.** What about the viability, T/C [2] of the same molecule?
**A.** 109%

**Q.** What about the viability, T/C [11] of the same molecule?
**A.** 105%

**Q.** What about the viability, T/C [12] of the same molecule?
**A.** 91.3%

**Q.** What about the viability, T/C [13] of the same molecule?
**A.** 92.5%

**Q.** What about the viability, T/C [14] of the same molecule?
**A.** 95.9%

**Q.** And the viability, T/C (second compound 0.1 µM, first compound 10 µM)?
**A.** 79.3%

**Q.** What about the viability, T/C [4] of the same molecule?
**A.** 103%

**Q.** What about the viability, T/C [15] of the same molecule?
**A.** 101%

**Q.** What about the viability, T/C [16] of the same molecule?
**A.** 94.8%

**Q.** What about the viability, T/C [17] of the same molecule?
**A.** 91.8%

**Q.** And the viability, T/C [18]?
**A.** 88%

**Q.** And the viability, T/C (second compound 0.316 µM, first compound 10 µM)?
**A.** 75.7%

**Q.** What about the viability, T/C [6] of the same molecule?
**A.** 88.3%

**Q.** What about the viability, T/C [19] of the same molecule?
**A.** 90.8%

**Q.** And the viability, T/C [20]?
**A.** 82.9%

**Q.** And the viability, T/C [21]?
**A.** 83.2%

**Q.** And the viability, T/C [22]?
**A.** 83.9%

**Q.** And the viability, T/C (second compound 1 µM, first compound 10 µM)?
**A.** 73.8%

**Q.** What about the viability, T/C [8] of the same molecule?
**A.** 16.5%

**Q.** And the viability, T/C [23]?
**A.** 23%

**Q.** And the viability, T/C [24]?
**A.** 14%

**Q.** What about the viability, T/C [25] of the same molecule?
**A.** 44.8%

**Q.** And the viability, T/C [26]?
**A.** 42.3%

**Q.** And the viability, T/C (second compound 3.16 µM, first compound 10 µM)?
**A.** 22.3%

**Q.** With CC1COCCN1c1cc(-c2ccnn2C)c2ccnc(-c3ccn[nH]3)c2n1 (stereo not given) + C=CC(=O)N1CCN(c2nc(=O)n(-c3c(C)ccnc3C(C)C)c3nc(-c4c(O)cccc4F)c(F)cc23)C(C)C1 as the molecule, how does the IC50 (second compound 0.1 µM) read?
**A.** > 3160 nM

**Q.** And the IC50 (second compound 0.316 µM)?
**A.** > 3160 nM

**Q.** What about the IC50 (second compound 1 µM) of the same molecule?
**A.** > 3160 nM

**Q.** And the IC50 (second compound 3.16 µM)?
**A.** > 3160 nM

**Q.** And the IC50 (second compound 10 µM)?
**A.** 1780 nM

**Q.** What about the viability, T/C [1] of the same molecule?
**A.** 107%

**Q.** And the viability, T/C [2]?
**A.** 99.4%

**Q.** And the viability, T/C [11]?
**A.** 88.8%

**Q.** What about the viability, T/C [12] of the same molecule?
**A.** 81.6%

**Q.** What about the viability, T/C [13] of the same molecule?
**A.** 65.5%

**Q.** What about the viability, T/C [14] of the same molecule?
**A.** 55.8%

**Q.** And the viability, T/C [3]?
**A.** 104%

**Q.** And the viability, T/C [4]?
**A.** 95.3%

**Q.** And the viability, T/C [15]?
**A.** 80%

**Q.** What about the viability, T/C [16] of the same molecule?
**A.** 78.2%

**Q.** And the viability, T/C [17]?
**A.** 65.5%

**Q.** And the viability, T/C [18]?
**A.** 52.6%

**Q.** And the viability, T/C [5]?
**A.** 100%

**Q.** And the viability, T/C [6]?
**A.** 103%

**Q.** And the viability, T/C [19]?
**A.** 89%

**Q.** And the viability, T/C [20]?
**A.** 80.5%

**Q.** What about the viability, T/C [21] of the same molecule?
**A.** 65.6%

**Q.** What about the viability, T/C [22] of the same molecule?
**A.** 53.8%

**Q.** What about the viability, T/C [7] of the same molecule?
**A.** 101%

**Q.** What about the viability, T/C [8] of the same molecule?
**A.** 107%

**Q.** And the viability, T/C [23]?
**A.** 89.3%

**Q.** What about the viability, T/C [24] of the same molecule?
**A.** 76.7%

**Q.** And the viability, T/C [25]?
**A.** 64.4%

**Q.** And the viability, T/C [26]?
**A.** 53.5%

**Q.** And the viability, T/C [9]?
**A.** 102%

**Q.** What about the viability, T/C [10] of the same molecule?
**A.** 103%

**Q.** And the viability, T/C (second compound 10 µM, first compound 0.1 µM)?
**A.** 84.5%

**Q.** What about the viability, T/C (second compound 10 µM, first compound 0.316 µM) of the same molecule?
**A.** 71.7%

**Q.** What about the viability, T/C (second compound 10 µM, first compound 1 µM) of the same molecule?
**A.** 55.5%

**Q.** What about the viability, T/C (second compound 10 µM, first compound 3.16 µM) of the same molecule?
**A.** 44.6%
